Among the data in patent US8658604B2, “Template-fixed beta-hairpin peptidomimetics with protease inhibitory activity” (Polyphor Ltd, priority 2005, dated 2014) are IC50 values, retold here.

Where a SMILES comes first, the peptide text is derived from it.

In one assay the target is T1, Elastase from human neutrophils (Homo sapiens, UniProt P08246).
T1 sequence (P08246 30-267): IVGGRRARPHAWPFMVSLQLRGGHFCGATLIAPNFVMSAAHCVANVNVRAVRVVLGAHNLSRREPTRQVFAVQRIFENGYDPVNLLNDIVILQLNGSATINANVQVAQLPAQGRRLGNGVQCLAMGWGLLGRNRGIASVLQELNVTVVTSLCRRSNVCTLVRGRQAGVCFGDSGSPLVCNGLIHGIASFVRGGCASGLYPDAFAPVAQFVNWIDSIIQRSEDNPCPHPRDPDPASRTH
As to the kind of experiment: Enzymatic assay, elastase. The following applies: Elastase IC50.
Turning to `CCCC[C@@H]1NC(=O)[C@@H]2CCCN2C(=O)[C@H]2CCCN2C(=O)[C@H](Cc2ccc(O)cc2)NC(=O)[C@H](CCC(N)=O)NC(=O)[C@H](CCC(N)=O)NC(=O)[C@@H]2CCCN2C(=O)[C@@H]2CCCN2C(=O)[C@H]([C@@H](C)CC)NC(=O)[C@H](CO)NC(=O)[C@H](C)NC(=O)[C@H]([C@@H](C)O)NC(=O)[C@H]([C@@H](C)O)NC1=O` [Ex. 110] (HELM PEPTIDE1{[Nle].T.T.A.S.I.P.P.Q.Q.Y.[dP].P}$PEPTIDE1,PEPTIDE1,1:R1-13:R2$$$V2.0), the 50% inhibitory concentration (IC50) came out at 38 nM.
Take `CCCCCCCC[C@@H]1NC(=O)[C@@H]2CCCN2C(=O)[C@H]2CCCN2C(=O)[C@H](CCC(N)=O)NC(=O)[C@@H]2CSSC[C@H](NC1=O)C(=O)N[C@@H]([C@@H](C)O)C(=O)N[C@@H](C)C(=O)N[C@@H](CO)C(=O)N[C@@H]([C@@H](C)CC)C(=O)N1CCC[C@H]1C(=O)N1CCC[C@H]1C(=O)N[C@@H](CCC(N)=O)C(=O)N2` [Ex. 149] (HELM PEPTIDE1{[CCCCCCCC[C@H](N[*:1])C(=O)[*:2]].C.T.A.S.I.P.P.Q.C.Q.[dP].P}$PEPTIDE1,PEPTIDE1,2:R3-10:R3|PEPTIDE1,PEPTIDE1,1:R1-13:R2$$$V2.0): half-maximal inhibition (IC50) was put at 11 nM.
Still for that read-out and setting: for `CCCCCCCC[C@@H]1NC(=O)[C@H](CO)NC(=O)[C@H](C)NC(=O)[C@H]([C@@H](C)O)NC(=O)[C@H]([C@@H](C)O)NC(=O)[C@H](CCCC)NC(=O)[C@@H]2CCCN2C(=O)[C@H]2CCCN2C(=O)[C@H](Cc2ccc(O)cc2)NC(=O)[C@H](CCC(N)=O)NC(=O)[C@H](CCC(N)=O)NC(=O)[C@@H]2CCCN2C(=O)[C@@H]2CCCN2C1=O` [Ex. 135] (HELM PEPTIDE1{[Nle].T.T.A.S.[CCCCCCCC[C@H](N[*:1])C(=O)[*:2]].P.P.Q.Q.Y.[dP].P}$PEPTIDE1,PEPTIDE1,1:R1-13:R2$$$V2.0) the value was 23 nM; for `CCCC[C@@H]1NC(=O)[C@H](CCC(N)=O)NC(=O)[C@H]2CCCN2C(=O)[C@H](Cc2ccccc2Cl)NC(=O)[C@@H]2CSSC[C@H](NC1=O)C(=O)N[C@@H]([C@@H](C)O)C(=O)N[C@@H](C)C(=O)N[C@@H](CO)C(=O)N[C@@H](CC1CCCCC1)C(=O)N1CCC[C@H]1C(=O)N1CCC[C@H]1C(=O)N[C@@H](CCC(N)=O)C(=O)N2` [compound 175] (HELM PEPTIDE1{[Nle].C.T.A.S.[Cha].P.P.Q.C.[O=C([C@H](Cc1ccccc1Cl)N[*:1])[*:2]].[dP].Q}$PEPTIDE1,PEPTIDE1,2:R3-10:R3|PEPTIDE1,PEPTIDE1,1:R1-13:R2$$$V2.0), 12 nM.
Still for that read-out and setting: the figure for `CC[C@H](C)[C@@H]1NC(=O)[C@H](CO)NC(=O)[C@H](C)NC(=O)[C@H]([C@@H](C)O)NC(=O)[C@H](CCC(N)=O)NC(=O)[C@H](CCc2ccccc2)NC(=O)[C@@H]2CCCN2C(=O)[C@H]2CCCN2C(=O)[C@H](Cc2ccc(O)cc2)NC(=O)[C@H]([C@@H](C)O)NC(=O)[C@H](CCC(N)=O)NC(=O)[C@@H]2CCCN2C(=O)[C@@H]2CCCN2C1=O` [Ex. 142] (HELM PEPTIDE1{[O=C([C@H](CCc1ccccc1)N[*:1])[*:2]].Q.T.A.S.I.P.P.Q.T.Y.[dP].P}$PEPTIDE1,PEPTIDE1,1:R1-13:R2$$$V2.0) is 16 nM; for `CCCC[C@@H]1NC(=O)[C@@H]2CCCN2C(=O)[C@H]2CCCN2C(=O)[C@H](Cc2ccc(O)cc2)NC(=O)[C@H](CCCCN)NC(=O)[C@H](CCC(N)=O)NC(=O)[C@@H]2CCCN2C(=O)[C@@H]2CCCN2C(=O)[C@H]([C@@H](C)CC)NC(=O)[C@H](CO)NC(=O)[C@H](C)NC(=O)[C@H]([C@@H](C)O)NC(=O)[C@H]([C@@H](C)O)NC1=O` [Ex. 106] (HELM PEPTIDE1{[Nle].T.T.A.S.I.P.P.Q.K.Y.[dP].P}$PEPTIDE1,PEPTIDE1,1:R1-13:R2$$$V2.0) it is 49 nM.
In the case of `CCCCCCCC[C@@H]1NC(=O)[C@H](CO)NC(=O)[C@H](C)NC(=O)[C@H]([C@@H](C)O)NC(=O)[C@@H]2CSSC[C@H](NC(=O)[C@H](CCC(N)=O)NC(=O)[C@@H]3CCCN3C(=O)[C@@H]3CCCN3C1=O)C(=O)N[C@@H](Cc1ccccc1)C(=O)N1CCC[C@@H]1C(=O)N1CCC[C@H]1C(=O)N[C@@H](CCc1ccccc1)C(=O)N2` [Ex. 152] (HELM PEPTIDE1{[O=C([C@H](CCc1ccccc1)N[*:1])[*:2]].C.T.A.S.[CCCCCCCC[C@H](N[*:1])C(=O)[*:2]].P.P.Q.C.F.[dP].P}$PEPTIDE1,PEPTIDE1,2:R3-10:R3|PEPTIDE1,PEPTIDE1,1:R1-13:R2$$$V2.0), half-maximal inhibition (IC50) was put at 9 nM.

The target in the next assay is T2, CathepsinG, from human neutrophils (Homo sapiens, UniProt P08311).
T2 sequence (P08311 21-244): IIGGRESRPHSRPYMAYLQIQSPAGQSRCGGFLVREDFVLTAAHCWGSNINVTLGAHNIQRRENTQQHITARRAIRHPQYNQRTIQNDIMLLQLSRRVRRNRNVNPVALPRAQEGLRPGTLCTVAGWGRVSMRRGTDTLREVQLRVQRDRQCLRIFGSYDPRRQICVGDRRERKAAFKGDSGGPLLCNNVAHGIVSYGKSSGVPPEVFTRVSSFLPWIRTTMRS
As to the kind of experiment: Enzymatic assay, cathepsin G. The note with it: Cathepsin G IC50.
The compound `CCCC[C@@H]1NC(=O)[C@@H]2CCCN2C(=O)[C@H]2CCCN2C(=O)[C@H](CC(=O)O)NC(=O)[C@@H]2CSSC[C@H](NC1=O)C(=O)N[C@@H]([C@@H](C)O)C(=O)N[C@@H](CCCCN)C(=O)N[C@@H](CO)C(=O)N[C@@H](CC(=O)O)C(=O)N1CCC[C@H]1C(=O)N1CCC[C@H]1C(=O)N[C@@H]([C@@H](C)CC)C(=O)N2` [Ex. 43] (HELM PEPTIDE1{[Nle].C.T.K.S.D.P.P.I.C.D.[dP].P}$PEPTIDE1,PEPTIDE1,2:R3-10:R3|PEPTIDE1,PEPTIDE1,1:R1-13:R2$$$V2.0) showed an IC50 of 77 nM.
Same read-out and setting: the figure for `CC[C@H](C)[C@@H]1NC(=O)[C@@H]2CCCN2C(=O)[C@@H]2CCCN2C(=O)[C@H](CC(=O)O)NC(=O)[C@H](CO)NC(=O)[C@H](CCCCN)NC(=O)[C@H]([C@@H](C)O)NC(=O)[C@@H]2CSSC[C@H](NC1=O)C(=O)N[C@@H](CC(=O)O)C(=O)N1CCC[C@@H]1C(=O)N1CCC[C@H]1C(=O)N[C@@H](CC1CCCCC1)C(=O)N2` [Ex. 35] (HELM PEPTIDE1{[Cha].C.T.K.S.D.P.P.I.C.D.[dP].P}$PEPTIDE1,PEPTIDE1,2:R3-10:R3|PEPTIDE1,PEPTIDE1,1:R1-13:R2$$$V2.0) is 54 nM; for `CC[C@H](C)[C@@H]1NC(=O)[C@@H]2CCCN2C(=O)[C@@H]2CCCN2C(=O)[C@H](CC(=O)O)NC(=O)[C@H](CO)NC(=O)[C@H](CCCCN)NC(=O)[C@H]([C@@H](C)O)NC(=O)[C@@H]2CSSC[C@H](NC1=O)C(=O)N[C@@H](CO)C(=O)N[C@H]([C@H](C)O)C(=O)N1CCC[C@H]1C(=O)N[C@@H](Cc1ccccc1)C(=O)N2` [Ex. 72] (HELM PEPTIDE1{C.S.[dT].P.F.C.T.K.S.D.P.P.I}$PEPTIDE1,PEPTIDE1,1:R3-6:R3|PEPTIDE1,PEPTIDE1,1:R1-13:R2$$$V2.0) it is 87 nM.
On the same count and under the same terms, for `C[C@@H](O)[C@@H]1NC(=O)[C@@H]2CSSC[C@H](NC(=O)[C@H](CC3CCCCC3)NC(=O)[C@@H]3CCCN3C(=O)[C@@H]3CCCN3C(=O)[C@H](CC(=O)O)NC(=O)[C@H](CO)NC(=O)[C@H](CCCCN)NC1=O)C(=O)N[C@@H](CC(N)=O)C(=O)N1CCC[C@@H]1C(=O)N1CCC[C@H]1C(=O)N[C@@H](Cc1ccc(N)cc1)C(=O)N2` [Ex. 70] (HELM PEPTIDE1{[Nc1ccc(C[C@H](N[*:1])C(=O)[*:2])cc1].C.T.K.S.D.P.P.[Cha].C.N.[dP].P}$PEPTIDE1,PEPTIDE1,2:R3-10:R3|PEPTIDE1,PEPTIDE1,1:R1-13:R2$$$V2.0) the value was 69 nM; for `CC[C@H](C)[C@@H]1NC(=O)[C@@H]2CCCN2C(=O)[C@@H]2CCCN2C(=O)[C@H](CC(=O)O)NC(=O)[C@H](CO)NC(=O)[C@H](CCCCN)NC(=O)[C@H]([C@@H](C)O)NC(=O)[C@@H]2CSSC[C@H](NC1=O)C(=O)N[C@@H](CO)C(=O)N[C@H](CC(N)=O)C(=O)N1CCC[C@H]1C(=O)N[C@@H](Cc1ccccc1)C(=O)N2` [Ex. 69] (HELM PEPTIDE1{C.S.[dN].P.F.C.T.K.S.D.P.P.I}$PEPTIDE1,PEPTIDE1,1:R3-6:R3|PEPTIDE1,PEPTIDE1,1:R1-13:R2$$$V2.0), 68 nM.
`CC[C@H](C)[C@@H]1NC(=O)[C@@H]2CCCN2C(=O)[C@@H]2CCCN2C(=O)[C@H](CC(=O)O)NC(=O)[C@H](CO)NC(=O)[C@H](CCCCN)NC(=O)[C@H]([C@@H](C)O)NC(=O)[C@@H]2CSSC[C@H](NC1=O)C(=O)N[C@@H](CC(N)=O)C(=O)N1CCC[C@@H]1C(=O)N1CCC[C@H]1C(=O)N[C@@H](CC1CCCCC1)C(=O)N2` [Ex. 33] (HELM PEPTIDE1{[Cha].C.T.K.S.D.P.P.I.C.N.[dP].P}$PEPTIDE1,PEPTIDE1,2:R3-10:R3|PEPTIDE1,PEPTIDE1,1:R1-13:R2$$$V2.0) returned a 50% inhibitory concentration (IC50) of 45 nM.
With `CC[C@H](C)[C@@H]1NC(=O)[C@@H]2CCCN2C(=O)[C@@H]2CCCN2C(=O)[C@H](CC(=O)O)NC(=O)[C@H](CO)NC(=O)[C@H](CCCCN)NC(=O)[C@H]([C@@H](C)O)NC(=O)[C@@H]2CSSC[C@H](NC1=O)C(=O)N[C@@H](CC(N)=O)C(=O)N1CCC[C@@H]1C(=O)N1CCC[C@H]1C(=O)N[C@@H](Cc1ccccc1Cl)C(=O)N2` [Ex. 45] (HELM PEPTIDE1{[O=C([C@H](Cc1ccccc1Cl)N[*:1])[*:2]].C.T.K.S.D.P.P.I.C.N.[dP].P}$PEPTIDE1,PEPTIDE1,2:R3-10:R3|PEPTIDE1,PEPTIDE1,1:R1-13:R2$$$V2.0), it took 47 nM to reach half-maximal inhibition (IC50).
The same measure, in the same setting: for `CC[C@H](C)[C@@H]1NC(=O)[C@@H]2CCCN2C(=O)[C@@H]2CCCN2C(=O)[C@H](CC(=O)O)NC(=O)[C@H](CO)NC(=O)[C@H](CCCCN)NC(=O)[C@H]([C@@H](C)O)NC(=O)[C@@H]2CSSC[C@H](NC1=O)C(=O)N[C@@H](CO)C(=O)N1CCC[C@@H]1C(=O)N1CCC[C@H]1C(=O)N[C@@H](Cc1cccc3ccccc13)C(=O)N2` [Ex. 62] (HELM PEPTIDE1{[O=C([C@H](Cc1cccc2ccccc12)N[*:1])[*:2]].C.T.K.S.D.P.P.I.C.S.[dP].P}$PEPTIDE1,PEPTIDE1,2:R3-10:R3|PEPTIDE1,PEPTIDE1,1:R1-13:R2$$$V2.0) the value was 69 nM.
